Molecular target: T1, pS935-LRRK2 (Homo sapiens, UniProt Q5S007)
T1 construct: fresh PBMCs from healthy volunteer donors; endogenous in cells; host or cells: fresh and cryopreserved PBMCs from healthy volunteer donors
Test: pS935-LRRK2 ELISA on freshly isolated PBMCs from healthy volunteers
Format: cell-based
Conditions: increasing concentrations, 1 hour (FIG. 3C)
Experimental: Phosphorylation of LRRK2 at the Ser935 residue by ELISA was assessed. For each sample, the signal corresponding to pS935-LRRK2 was normalized to its corresponding value of total LRRK2 (in ng/ml). Increasing amounts of recombinant human full-length LRRK2 was bound to parallel ELISA plates using the c41-2 clone for capture, and detected using total (N241A; for normalization) or phosphorylated (pS935-LRRK2, UDD2) antibodies (FIG. 3A). […] Freshly isolated PBMCs from healthy volunteers were treated with increasing concentrations of the kinase inhibitor PF-475 for 1 hour, and subjected to pS935-LRRK2 ELISA (FIG. 3C). […] In contrast, in PBMC extracts from carriers of the G2019S mutation, with and without PD, there was a non-significant trend towards lower levels of pS935-LRRK2 compared to healthy controls (FIG. 3E). The values of all G2019S carriers are pooled for comparison against healthy controls (FIG. 3F). Levels of pS935-LRRK2 and various clinical parameters were compared (FIG. 3G). In iPD patients, there was no correlation between pS935-LRRK2 and the motor function scale UPDRS-III (not shown); however, performance on the cognitive function test, MoCA, was negatively correlated with pS935-LRRK2 levels in iPD patients (FIG. 3G; right panel) and healthy controls (FIG. 3G; center panel).

T1 sequence (Q5S007 whole entry): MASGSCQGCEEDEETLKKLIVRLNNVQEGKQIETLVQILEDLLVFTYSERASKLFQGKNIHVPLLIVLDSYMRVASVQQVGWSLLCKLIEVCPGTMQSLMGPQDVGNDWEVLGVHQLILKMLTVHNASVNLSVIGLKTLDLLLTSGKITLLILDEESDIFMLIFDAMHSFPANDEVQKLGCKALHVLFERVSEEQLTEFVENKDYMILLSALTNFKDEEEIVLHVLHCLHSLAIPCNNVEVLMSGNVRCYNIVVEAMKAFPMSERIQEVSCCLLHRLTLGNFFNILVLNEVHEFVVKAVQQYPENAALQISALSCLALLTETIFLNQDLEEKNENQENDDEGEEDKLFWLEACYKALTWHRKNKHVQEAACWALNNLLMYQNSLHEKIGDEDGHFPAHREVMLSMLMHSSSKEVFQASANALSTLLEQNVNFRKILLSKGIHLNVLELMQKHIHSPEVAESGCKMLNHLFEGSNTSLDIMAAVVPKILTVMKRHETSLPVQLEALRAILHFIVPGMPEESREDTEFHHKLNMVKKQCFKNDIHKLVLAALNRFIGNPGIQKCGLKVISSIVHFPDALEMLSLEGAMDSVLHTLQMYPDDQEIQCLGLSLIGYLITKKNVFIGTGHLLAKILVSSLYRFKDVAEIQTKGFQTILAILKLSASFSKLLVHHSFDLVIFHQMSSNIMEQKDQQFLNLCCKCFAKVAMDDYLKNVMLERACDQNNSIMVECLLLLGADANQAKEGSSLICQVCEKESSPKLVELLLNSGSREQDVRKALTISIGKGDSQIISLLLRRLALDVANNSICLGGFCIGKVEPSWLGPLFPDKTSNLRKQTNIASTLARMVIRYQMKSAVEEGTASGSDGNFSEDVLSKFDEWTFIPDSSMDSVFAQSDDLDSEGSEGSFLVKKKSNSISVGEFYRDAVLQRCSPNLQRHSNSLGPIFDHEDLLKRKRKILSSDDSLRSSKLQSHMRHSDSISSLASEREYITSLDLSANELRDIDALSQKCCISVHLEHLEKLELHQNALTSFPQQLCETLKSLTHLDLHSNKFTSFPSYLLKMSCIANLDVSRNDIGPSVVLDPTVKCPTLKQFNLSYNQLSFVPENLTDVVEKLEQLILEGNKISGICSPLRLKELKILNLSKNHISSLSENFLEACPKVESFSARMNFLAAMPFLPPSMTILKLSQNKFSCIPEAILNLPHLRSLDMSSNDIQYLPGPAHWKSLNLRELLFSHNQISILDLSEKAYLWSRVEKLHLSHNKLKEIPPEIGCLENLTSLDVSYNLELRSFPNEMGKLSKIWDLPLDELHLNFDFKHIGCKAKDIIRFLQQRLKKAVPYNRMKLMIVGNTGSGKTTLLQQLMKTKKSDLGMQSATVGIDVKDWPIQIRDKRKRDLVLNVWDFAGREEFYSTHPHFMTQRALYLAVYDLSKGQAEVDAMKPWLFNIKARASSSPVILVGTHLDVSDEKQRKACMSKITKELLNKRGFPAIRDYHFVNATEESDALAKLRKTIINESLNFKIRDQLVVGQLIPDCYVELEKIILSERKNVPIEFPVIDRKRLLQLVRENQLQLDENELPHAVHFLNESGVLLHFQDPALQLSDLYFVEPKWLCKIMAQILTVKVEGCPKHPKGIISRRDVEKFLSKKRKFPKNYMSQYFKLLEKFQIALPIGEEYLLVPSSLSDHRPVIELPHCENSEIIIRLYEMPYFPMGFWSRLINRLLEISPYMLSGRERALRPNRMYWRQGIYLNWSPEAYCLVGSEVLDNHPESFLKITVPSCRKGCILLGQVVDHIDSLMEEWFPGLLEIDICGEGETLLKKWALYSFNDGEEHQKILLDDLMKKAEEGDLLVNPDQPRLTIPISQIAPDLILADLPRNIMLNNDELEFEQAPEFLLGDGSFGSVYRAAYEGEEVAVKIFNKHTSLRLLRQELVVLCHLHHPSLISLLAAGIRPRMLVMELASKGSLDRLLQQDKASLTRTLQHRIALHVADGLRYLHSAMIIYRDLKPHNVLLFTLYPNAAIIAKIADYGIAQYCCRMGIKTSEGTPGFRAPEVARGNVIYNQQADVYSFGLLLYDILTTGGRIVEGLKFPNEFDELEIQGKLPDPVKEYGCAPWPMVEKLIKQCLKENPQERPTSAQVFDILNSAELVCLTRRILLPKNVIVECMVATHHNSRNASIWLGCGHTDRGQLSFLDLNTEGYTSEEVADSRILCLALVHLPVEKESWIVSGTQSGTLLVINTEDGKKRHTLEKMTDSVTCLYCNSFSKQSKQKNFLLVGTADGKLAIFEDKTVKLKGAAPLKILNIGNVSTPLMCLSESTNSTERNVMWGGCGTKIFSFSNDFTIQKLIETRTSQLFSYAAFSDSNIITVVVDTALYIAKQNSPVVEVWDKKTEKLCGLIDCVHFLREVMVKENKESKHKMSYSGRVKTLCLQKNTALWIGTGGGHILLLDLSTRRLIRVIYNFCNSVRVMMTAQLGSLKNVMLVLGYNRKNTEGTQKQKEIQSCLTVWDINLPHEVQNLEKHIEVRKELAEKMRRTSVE

phosphorylated LRRK2 (pS935-LRRK2) level: significant dose-dependent loss
SMILES: N#Cc1cccc(-c2c[nH]c3ncnc(N4CCOCC4)c23)c1 [PF-475]

— US20230333121A1, “METHODS AND COMPOSITIONS RELATING TO BIOMARKERS FOR NEURODEGENERATIVE DISEASES” (ANACALYPSIS THERAPEUTICS, IKE, priority 2020, published 2023)
